For this assay, the system named is 931267-113-T-J1-PDC multicell spheroid viability. Briefly: Anticancer human tumor 931267-113-T-J1-PDC patient-derived colon adenocarcinoma cell line growth inhibition [PI3K]. Conditions: for viability, T/C: stronger effect = lower value. The source says: Combinatorial screen of targeted agents with the PI3K inhibitors inavolisib, alpelisib, duvelisib, and copanlisib in multi-cell type tumor spheroids
A high-throughput screen of multi-cell type tumor spheroids was designed to identify active combinations of targeted small molecules and PI3K pathway inhibitors. Complex spheroids include a stromal component modeled by human endothelial cells (HUVEC) and fibroblasts modeled by human mesenchymal stem cells (MSCs). The concentration ranges selected for each drug and investigational agent were based upon clinically achievable concentrations if the clinical Cmax of the agent was known.
Compounds. The drugs and investigational agents: inavolisib (NSC800729), alpelisib (NSC765974), duvelisib (NSC772469), copanlisib (NSC816437), ipatasertib (NSC767898), afuresertib (NSC778305), talazoparib (NSC767125), sapanisertib (NSC764658), selumetinib (NSC741078), tovorafenib (DAY101, NSC766906), vemurafenib (NSC761431), ravoxertinib (NSC781343), sotorasib (NSC818433), MRTX1133 (NSC 836407), abemaciclib (NSC 768073), palbociclib (NSC758247), venetoclax (NSC 766270), SY5609 (NSC837396), enzalutamide (NSC755605), and darolutamide (NSC825331), were obtained from the National Cancer Institute (NCI) Developmental Therapeutics Program Chemical Repository. The FDA-approved anticancer drug set is available from the NCI Developmental Therapeutics Program. […] The stock solutions were prepared in dimethyl sulfoxide (DMSO, Sigma-Aldrich, St. Louis, MO, cat. D2650) at 800-fold the tested concentration and stored at -70 degrees C prior to their use. All drugs and investigational agents were tested over a range starting from a high concentration at or near the clinical Cmax and decreasing in half-log increments. If the clinical Cmax for an agent had not been determined, the highest concentration tested was 10 microM.
Cell Culture. All cells were maintained in an incubator at 37 degrees C and 5% CO2 with 95% humidity. The PDC lines were cultured according to standard operating procedures established by the NCI PDMR (https://pdmr.cancer.gov/sops/default.htm). All PDCs were thawed and cultured in Matrigel-coated flasks prepared with a working solution of 1X Ham's F-12 nutrient mix, without supplementation (Invitrogen, Waltham, MA, cat. 11765054), 100 U/mL penicillin-streptomycin (Invitrogen, cat. 15140122), and 2.5% Matrigel (Corning Inc., Corning, NY, cat. 354248) for the first three passages. The 354836-022-R-J1-PDC, 475296-252-R-J1-PDC, and 997726-040-R-J2-PDC lines were cultured in 6A media, which includes advanced DMEM/F-12 (Thermo Fisher Scientific, cat. 12634028), 10 mM HEPES (Thermo Fisher Scientific, cat. 15630080), 1X GlutaMAX supplement (Thermo Fisher Scientific, cat. 35050061), 0.1 mg/mL primocin (InvivoGen, San Diego, CA, cat. ant-pm-2), 10% defined fetal bovine serum, heat inactivated (HyClone Laboratories Inc., Logan, UT, cat. SH30070.03HI), 50% L-WRN conditioned media (ATCC, cat. CRL-3276), 1.25 mM N-Acetyl-L-cysteine (Sigma-Aldrich, cat. A9165), 10 mM nicotinamide (Sigma-Aldrich, cat. N0636), 1X B-27 supplement (Thermo Fisher Scientific, cat. 17504044), 1X N-2 supplement (Thermo Fisher Scientific, cat. 17502048), and 10 microM Y-27632 dihydrochloride (Tocris Bioscience, Bristol, United Kingdom, cat. 1254). The 624824-186-R-J2-PDC line was cultured in 6C/Colon 1B media, which includes all 6A media components plus 50 ng/mL human EGF recombinant protein (Thermo Fisher Scientific, cat. PHG0311). […]

Setting [1] is: compound alone, run of 05/08/2023.
Setting [2] is: compound alone, run of 05/09/2023.

“And” between values parts separate entries of the source, which are not always exact repeats. Identical values can stand only once.

Consider 15 compounds from PubChem BioAssay AID1963970 (Molecular Pharmacology Branch, DTP, NCI, 2024).
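Further: viability read 7 days after compound addition.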

`CC(=O)c1c(C)c2cnc(Nc3ccc(N4CCNCC4)cn3)nc2n(C2CCCC2)c1=O`: the viability, T/C by setting is: (compound 0.000316 µM) 112% and 99.6% and 105%; (compound 0.001 µM) 110% and 101% and 102%; (compound 0.00316 µM) 103% and 113% and 106%; (compound 0.01 µM) 108% and 111% and 103%; (compound 0.0316 µM) 99.5% and 106% and 104%; (compound 0.1 µM) 89.5% and 91.3% and 105%. Where the note is “curve of compound”, the IC50 was over 100 nM.

Take `CC(C)NCC(C(=O)N1CCN(c2ncnc3c2C(C)CC3O)CC1)c1ccc(Cl)cc1` (configuration not stated): the viability, T/C was 99.5% [middle of 4 runs] (compound 0.0316 µM); 95.4% [middle of 4 runs] (compound 0.1 µM); 98.5% [middle of 4 runs] (compound 0.316 µM); 99.6% [middle of 4 runs] (compound 1 µM); 89.5% [middle of 4 runs] (compound 3.16 µM); 80.2% [middle of 4 runs] (compound 10 µM). For the same compound, the IC50 (curve of compound) is over 10000 nM.

Turning to `CC(C)n1nc(-c2ccc3oc(N)nc3c2)c2c(N)ncnc21`, the viability, T/C by setting is: (compound 0.000316 µM) 101% [middle of 4 runs]; (compound 0.001 µM) 88.2% and 95% (2×) and 92.1%; (compound 0.00316 µM) 96.8% [middle of 4 runs]; (compound 0.01 µM) 96.1% [middle of 4 runs]; (compound 0.0316 µM) 81.6% [middle of 4 runs]; (compound 0.1 µM) 52.2% [middle of 4 runs]. Also, the IC50 (curve of compound) is 84.8 nM and 92.4 nM and > 100 nM.

As for `CC(Cn1ccc(-c2ccc(C#N)c(Cl)c2)n1)NC(=O)c1cc(C(C)O)[nH]n1` (configuration not stated), the viability, T/C is 109% and 95.2% and 110% (compound 0.0316 µM); 107% and 94.8% and 102% (compound 0.1 µM); 109% and 108% and 101% (compound 0.316 µM); 117% and 108% and 106% (compound 1 µM); 98.7% and 110% and 107% (compound 3.16 µM); 103% and 102% and 108% (compound 10 µM). Also, the IC50 (curve of compound) is over 10000 nM.

Consider `CC(Nc1ccc2c(c1)OCCn1cc(N3C(=O)OCC3C(F)F)nc1-2)C(N)=O` (configuration not stated), for which the viability, T/C was 99.8% [middle of 8 runs] (compound 0.00316 µM); 100% [middle of 8 runs] (compound 0.01 µM); 96.4% [middle of 8 runs] (compound 0.0316 µM); 83.7% [middle of 8 runs] (compound 0.1 µM); 86% [middle of 8 runs] (compound 0.316 µM); 83.1% [middle of 8 runs] (compound 1 µM). Further, under setting [1], the IC50 was over 1000 nM.

Regarding `CC(Nc1ncnc2nc[nH]c12)c1cc2cccc(Cl)c2c(=O)n1-c1ccccc1` (configuration not stated), the viability, T/C was 102% [middle of 8 runs] (compound 0.0316 µM); 99.7% [middle of 8 runs] (compound 0.1 µM); 102% [middle of 8 runs] (compound 0.316 µM); 100% [middle of 8 runs] (compound 1 µM); 99.7% [middle of 8 runs] (compound 3.16 µM); 96.7% [middle of 8 runs] (compound 10 µM). Also, the concentration for half-maximal inhibition (IC50) under setting [2] was over 10000 nM.

For `CC1(C)CCC(CN2CCN(c3ccc(C(=O)NS(=O)(=O)c4ccc(NCC5CCOCC5)c([N+](=O)[O-])c4)c(Oc4cnc5[nH]ccc5c4)c3)CC2)=C(c2ccc(Cl)cc2)C1`, the viability, T/C (compound 0.0316 µM) is 97.9% [middle of 4 runs]; the viability, T/C (compound 0.1 µM) was 95.5% [middle of 4 runs]; the viability, T/C (compound 0.316 µM) is 106% [middle of 4 runs]; the viability, T/C (compound 1 µM) was 103% [middle of 4 runs]; the viability, T/C (compound 3.16 µM) is 93.7% and 104% and 105% (2×).

With `CCCS(=O)(=O)Nc1ccc(F)c(C(=O)c2c[nH]c3ncc(-c4ccc(Cl)cc4)cc23)c1F`, the viability, T/C by setting is: (compound 0.0316 µM) 102% (2×) and 106% and 94%; (compound 0.1 µM) 116% (2×) and 93.5% and 96.7%; (compound 0.316 µM) 109% [middle of 4 runs]; (compound 1 µM) 129% [middle of 4 runs]; (compound 10 µM) 5.21% [middle of 4 runs]. The IC50 (curve of compound) was 6.15 µM [middle of 4 runs].

As for `CCN1CCN(Cc2ccc(Nc3ncc(F)c(-c4cc(F)c5nc(C)n(C(C)C)c5c4)n3)nc2)CC1`, the viability, T/C reads like this: (compound 0.00316 µM) 101% [middle of 4 runs]; (compound 0.01 µM) 105% (2×) and 103% and 99.8%; (compound 0.0316 µM) 103% [middle of 4 runs]; (compound 0.1 µM) 102% (2×) and 100% and 96.4%; (compound 0.316 µM) 96.2% [middle of 4 runs]; (compound 1 µM) 84.8% [middle of 4 runs]. Also, under “curve of compound”, the IC50 was over 1000 nM.

Take `CNC(=O)c1ccc(N2C(=S)N(c3ccc(C#N)c(C(F)(F)F)c3)C(=O)C2(C)C)cc1F`: the viability, T/C (compound 0.0316 µM) is 104% [middle of 4 runs]; the viability, T/C (compound 0.1 µM) is 103% [middle of 4 runs]; the viability, T/C (compound 0.316 µM) was 98.2% [middle of 4 runs]; the viability, T/C (compound 1 µM) was 101% [middle of 4 runs]; the viability, T/C (compound 3.16 µM) is 102% and 108% (2×) and 105%; the viability, T/C (compound 10 µM) is 108% and 105% (2×) and 93.6%. Also, the IC50 (curve of compound) is over 10000 nM.

In the case of `COc1c(OCCCN2CCOCC2)ccc2c3n(c(=NC(=O)c4cnc(N)nc4)nc12)CCN3`, the viability, T/C (compound 0.00316 µM) was 101% [middle of 8 runs]; the viability, T/C (compound 0.01 µM) was 95.7% [middle of 8 runs]; the viability, T/C (compound 0.0316 µM) was 80.6% [middle of 8 runs]; the viability, T/C (compound 0.1 µM) is 67.6% [middle of 8 runs]; the viability, T/C (compound 0.316 µM) is 51% [middle of 8 runs]; the viability, T/C (compound 1 µM) was 39.6% [middle of 8 runs]. For the same compound, the IC50 under setting [2] was 375 nM [middle of 8 runs].

As for `C[C@@H](NC(=O)c1ncnc(N)c1Cl)c1ncc(C(=O)Nc2cc(C(F)(F)F)c(Cl)cn2)s1`, the viability, T/C reads like this: (compound 0.0316 µM) 117% [middle of 4 runs]; (compound 0.1 µM) 112% [middle of 4 runs]; (compound 0.316 µM) 111% [middle of 4 runs]; (compound 1 µM) 114% [middle of 4 runs]; (compound 3.16 µM) 102% (2×) and 112% and 103%; (compound 10 µM) 78% [middle of 4 runs]. In addition, for the setting “curve of compound”, the IC50 is over 10000 nM.

For the compound `Cc1nc(NC(=O)N2CCCC2C(N)=O)sc1-c1ccnc(C(C)(C)C(F)(F)F)c1` (configuration not stated), the viability, T/C runs as follows: (compound 0.0316 µM) 99.6% [middle of 7 runs]; (compound 0.1 µM) 94.8% [middle of 7 runs]; (compound 0.316 µM) 84.8% [middle of 7 runs]; (compound 1 µM) 80.8% [middle of 7 runs]; (compound 3.16 µM) 74.6% [middle of 7 runs]; (compound 10 µM) 63.1% [middle of 7 runs]. For the same compound, the IC50 under setting [1] was over 10000 nM.

In the case of `Cn1cnc2c(F)c(Nc3ccc(Br)cc3Cl)c(C(=O)NOCCO)cc21`, the viability, T/C is 89.7% [middle of 4 runs] (compound 0.00949 µM); 67.5% [middle of 4 runs] (compound 0.03 µM); 53.3% [middle of 4 runs] (compound 0.0949 µM); 35.9% [middle of 4 runs] (compound 0.3 µM); 22.4% [middle of 4 runs] (compound 0.949 µM); 12.2% (2×) and 12.7% and 13.3% (compound 3 µM). Also, where the note is “curve of compound”, the IC50 was 118 nM [middle of 4 runs].

Consider `Cn1ncnc1[C@H]1c2n[nH]c(=O)c3cc(F)cc(c23)N[C@@H]1c1ccc(F)cc1`, for which the viability, T/C runs as follows: (compound 0.000316 µM) 104% [middle of 4 runs]; (compound 0.001 µM) 107% [middle of 4 runs]; (compound 0.00316 µM) 101% [middle of 4 runs]; (compound 0.01 µM) 111% and 106% and 97% (2×); (compound 0.0316 µM) 112% [middle of 4 runs]; (compound 0.1 µM) 95.6% [middle of 4 runs]. Besides, the IC50 (curve of compound) is over 100 nM.
